Results reported in US20230312578A1, “6H-INDOLO[2,3-B]QUINOXALINE DERIVATIVES USEFUL IN THERAPY” (Vironova Medical AB, priority 2020, published 2023).
Where two headings read alike, the source gives them in different places.

Key:
Format in all cases: cell-based
K-562 = test: Human tumor cell line growth assay (SRB); conditions: K562, Leukemia, K-562, 48 h
[1] = Human tumor cell line growth assay (SRB); conditions: human, NCI-H226 cells (NSCLC), NCI-H226, 48 h, read-out: LC50
NCI-H226 = test: Human tumor cell line growth assay (SRB); conditions: Homo sapiens; NSCLC, NCI-H226, 48 h
[2] = Human tumor cell line growth assay (SRB); conditions: human, NCI-H322M cells (NSCLC), read-out: LC50
NCI-H322M = test: Human tumor cell line growth assay (SRB); conditions: Homo sapiens, NSCLC, 48 h
[3] = Human tumor cell line growth assay (SRB); conditions: human, NCI-H460 cells (NSCLC), NCI-H460, 48 h, read-out: LC50
NCI-H460 = test: Human tumor cell line growth assay (SRB); conditions: Homo sapiens; NSCLC, NCI-H460, 48 h
[4] = Human tumor cell line growth assay (SRB); conditions: human, HT29 cells (colon), HT29, 48 h, read-out: LC50
HT29 = test: Human tumor cell line growth assay (SRB); conditions: Homo sapiens, HT-29; Colon, HT29, 48 h
[5] = Human tumor cell line growth assay (SRB); conditions: human, SF-268 cells (CNS), SF-268, 48 h
SF-268 = test: Human tumor cell line growth assay (SRB); conditions: Homo sapiens; CNS, SF-268, 48 h
[6] = Human tumor cell line growth assay (SRB); conditions: human, SF-295 cells (CNS), SF-295, 48 h, read-out: LC50
SF-295 = test: Human tumor cell line growth assay (SRB); conditions: Homo sapiens; CNS, SF-295, 48 h
[7] = Human tumor cell line growth assay (SRB); conditions: human, SF-539 cells (CNS), SF-539, 48 h, read-out: LC50
SF-539 = test: Human tumor cell line growth assay (SRB); conditions: Homo sapiens; CNS, SF-539, 48 h
[8] = Human tumor cell line growth assay (SRB); conditions: human, U251 cells (CNS), U251, 48 h, read-out: LC50
U251 = test: Human tumor cell line growth assay (SRB); conditions: Homo sapiens, U-251; CNS, U251, 48 h
[9] = Human tumor cell line growth assay (SRB); conditions: human, MALME-3M cells (melanoma), read-out: LC50
MALME-3M = test: Human tumor cell line growth assay (SRB); conditions: Homo sapiens, Melanoma, 48 h
[10] = Human tumor cell line growth assay (SRB); conditions: human, M14 cells (melanoma), M14, 48 h, read-out: LC50
M14 = test: Human tumor cell line growth assay (SRB); conditions: Homo sapiens; Melanoma, M14, 48 h
[11] = Human tumor cell line growth assay (SRB); conditions: human, UACC-257 cells (melanoma), UACC-257, 48 h, read-out: LC50
UACC-257 = test: Human tumor cell line growth assay (SRB); conditions: Homo sapiens; Melanoma, UACC-257, 48 h
UACC-62 = test: Human tumor cell line growth assay (SRB); conditions: Homo sapiens; Melanoma, UACC-62, 48 h
[12] = Human tumor cell line growth assay (SRB); conditions: human, OVCAR-3 cells (ovarian), OVCAR-3, 48 h, read-out: LC50
OVCAR-3 = test: Human tumor cell line growth assay (SRB); conditions: Homo sapiens; Ovarian, OVCAR-3, 48 h
[13] = Human tumor cell line growth assay (SRB); conditions: human, OVCAR-4 cells (ovarian), OVCAR-4, 48 h, read-out: LC50
[14] = Human tumor cell line growth assay (SRB); conditions: human, OVCAR-5 cells (ovarian), OVCAR-5, 48 h, read-out: LC50
OVCAR-5 = test: Human tumor cell line growth assay (SRB); conditions: Homo sapiens; Ovarian, OVCAR-5, 48 h
OVCAR-8 = test: Human tumor cell line growth assay (SRB); conditions: Ovarian, OVCAR-8, 48 h
SK-OV-3 = test: Human tumor cell line growth assay (SRB); conditions: Ovarian, SK-OV-3, 48 h
ACHN = test: Human tumor cell line growth assay (SRB); conditions: Renal, 48 h
UO-31 = test: Human tumor cell line growth assay (SRB); conditions: Renal, UO-31, 48 h
PC-3 = test: Human tumor cell line growth assay (SRB); conditions: Prostate, PC-3, 48 h
DU-145 = test: Human tumor cell line growth assay (SRB); conditions: Prostate, DU-145, 48 h
HS 578T = test: Human tumor cell line growth assay (SRB); conditions: Breast, 48 h
[15] = read-out: LC50 (the source's name)

## Cc1cc2nc3c4ccccc4n(CCN(C)C)c3nc2cc1C [B220, 2-(2,3-dimethyl-6H-indolo [2,3-b]quinoxalin-6-yl)-N,N-dimethylethanamine, reference compound]
K-562
  GI50: 1.99 µM
K-562; [15]
  CC50: > 100 µM
[1]
  CC50 at 48 h: > 100 µM
NCI-H226
  GI50: 2.01 µM
[2]
  CC50 at 48 h: 31.2 µM
NCI-H322M
  GI50: 1.86 µM
[3]
  CC50 at 48 h: 37.3 µM
NCI-H460
  GI50: 0.709 µM
[4]
  CC50 at 48 h: 45.3 µM
HT29
  GI50: 0.76 µM
[5]
  LC50 (50% lethal concentration) at 48 h: 28 µM
SF-268
  GI50: 1.45 µM
[6]
  CC50 at 48 h: 42.5 µM
SF-295
  GI50: 1.39 µM
[7]
  CC50 at 48 h: 15 µM
SF-539
  GI50: 1.83 µM
[8]
  CC50 at 48 h: 44.6 µM
U251
  GI50: 2.01 µM
[9]
  CC50 at 48 h: 53.3 µM
MALME-3M
  GI50: 1.41 µM
[10]
  CC50 at 48 h: 75.1 µM
M14
  GI50: 1.51 µM
[11]
  CC50 at 48 h: 5.99 µM
UACC-257
  GI50: 1.94 µM
UACC-62
  GI50: 1.43 µM
[12]
  CC50 at 48 h: 56.8 µM
OVCAR-3
  GI50: 1.91 µM
[13]
  CC50 at 48 h: > 100 µM
[14]
  CC50 at 48 h: 33.4 µM
OVCAR-5
  GI50: 2.1 µM
OVCAR-8
  GI50: 1.16 µM
OVCAR-8; [15]
  CC50: 87.2 µM
SK-OV-3
  GI50: 3.1 µM
SK-OV-3; [15]
  CC50: > 100 µM
ACHN
  GI50: 0.555 µM
ACHN; [15]
  CC50: 42.2 µM
UO-31
  GI50: 0.726 µM
UO-31; [15]
  CC50: 91.3 µM
PC-3
  GI50: 2.01 µM
PC-3; [15]
  CC50: > 100 µM
DU-145
  GI50: 2.07 µM
DU-145; [15]
  CC50: 55.6 µM
HS 578T
  GI50: 1.57 µM
HS 578T; [15]
  CC50: 67.4 µM
